Experimental data taken from patent US20100093613A1, “METHODS FOR IDENTIFYING AGENTS AND THEIR USE FOR THE PREVENTION OR STABILIZATION OF FIBROSIS” (priority 2007, published 2010).

Legend:
[1] = tested on: Umbilical Vein Endothelial Cells; assay: BioMAP 3C system (IL-1β + TNF-α + IFN-γ), scoring of readout parameters; format: cell-based, human; details: for HLA-DR score: desired change decrease; for uPAR score: desired change increase
Text: (§1) Each screened compound is scored according to its modulation of the selected readout parameters. Compounds receive a positive score (score of 1) or negative score (score of 0) for each readout parameter set forth in Table 2 that is modulated in the desired direction. […] Parameters may be penalized by making the positive score a −1 for parameters where regulation is opposite to the desired direction.
(§2) Cell culture. Human umbilical vein endothelial cells (HUVEC) were pooled from multiple donors, cultured according to standard methods, and plated into microtiter plates at passage 4. Cell culture medium for all systems containing HUVEC included hydrocortisone. Coronary artery smooth muscle cells (CASM3C) and umbilical artery smooth muscle cells (HSM3C) were cultured according to standard procedures. Peripheral blood mononuclear cells (PBMC) were prepared from buffy coats from normal human donors according to standard methods. Monocyte-derived macrophages were differentiated in the presence of M-CSF for 7 d according to standard procedures. Human dermal fibroblasts were pooled from 3 donors, cultured according to standard methods, and plated confluent 24 h before stimulation. Cell culture medium for all systems containing fibroblasts and keratinocytes contained low hydrocortisone. Epidermal keratinocytes and bronchial epithelial cells from 3 donors were cultured according to standard procedures and pooled when plated into microtiter plates. For keratinocyte-fibroblast co-cultures, cells were plated simultaneously 24 h before stimulation. For bronchial epithelial cell-fibroblast co-cultures, fibroblasts were plated and cultured 48 before addition of epithelial cells, then cultured another 24 hr before stimulation. Concentrations/amounts of agents added to confluent microtiter plates to build each system: cytokines (IL-1β, 1 ng/ml; TNF-α, 5 ng/ml; IFN-γ, 20 ng/ml; IL-4, 5 ng/ml), activators (SAg, 20 ng/ml; histamine, 10 μM; zymosan, 10 μg/ml; or LPS, 2 ng/ml), growth factors (TGF-β, 5 ng/ml; EGF, bFGF, and PDGF-BB, 10 ng/ml), and PBMC (7.5×10^4 cells/well) or macrophages (3.5×10^4 cells/well).
(§3) Compounds. Compounds were prepared in the solvent directed, added 1 hr before stimulation of the cells, and were present during the 24 hr stimulation period for the measurement of parameters listed in Table 2. For proliferation, compounds added 1 hr before stimulation of the cells with cytokines, and were present during the 48 to 72 hr assay. If prepared in DMSO, the final concentration of solvent was 0.1% or less.
(§4) Readout Parameter Measurements. The levels of readout parameters were measured by ELISA. Briefly, microtiter plates are treated, blocked, and then incubated with primary antibodies or isotype control antibodies (0.01-0.5 microg/ml) for 1 hr. After washing, plates were incubated with a peroxidase-conjugated anti-mouse IgG secondary antibody or a biotin-conjugated anti-mouse IgG antibody for 1 hr followed by streptavidin-HRP for 30 min. Plates were washed and developed with TMB substrate and the absorbance (OD) was read at 450 nm (subtracting the background absorbance at 650 nm). Quantitation of TNF-alpha or PGE2 in the LPS system was done using a commercially available kit according to the manufacturer's directions. Proliferation of endothelial cells (HUVEC and CAEC), smooth muscle cells (SMC and CASMC), and PBMC (T cells) was quantitated by Alamar Blue reduction or SRB.
(§5) Data analysis. Mean OD values for each parameter were calculated for compounds run in duplicate. The mean value (or single well OD value) for each parameter in a treated sample was then divided by the mean value from an appropriate control to generate a ratio. All ratios were then log10 transformed. 95% significance prediction envelopes (grey shading in Figures) were calculated for historical controls.

[2] = tested on: Bronchial epithelial cells; assay: BioMAP BE3C system (IL-1β + TNF-α + IFN-γ), scoring of readout parameters; format: cell-based, human; details: for PAI-1 score: desired change decrease; for EGFR score: desired no change or increase
Text: as §1, §2, §3, §4, §5

(R)-(−)-Apomorphine
HLA-DR score [1]: 0 | uPAR score [1]: 0 | HLA-DR score [2]: 1 | MMP-1 score [2]: 0 | uPA score [2]: 0 | PAI-1 score [2]: 1 | EGFR score [2]: 0

O=C(O)c1ccccc1Nc1cccc(C(F)(F)F)c1 [Flufenamic Acid]
HLA-DR score [1]: 0 | uPAR score [1]: 0 | HLA-DR score [2]: 0 | MMP-1 score [2]: 0 | uPA score [2]: 0 | PAI-1 score [2]: 1 | EGFR score [2]: 0

O=c1cc(-c2ccc(O)c(O)c2)oc2cc(O)cc(O)c12 [Luteolin]
HLA-DR score [1]: 0 | uPAR score [1]: 0 | HLA-DR score [2]: 0 | MMP-1 score [2]: 0 | uPA score [2]: 0 | PAI-1 score [2]: 0 | EGFR score [2]: 0

Cn1cnc([N+](=O)[O-])c1Sc1ncnc2nc[nH]c12 [Azathioprine]
HLA-DR score [1]: 0 | uPAR score [1]: 0 | HLA-DR score [2]: 0 | MMP-1 score [2]: 0 | uPA score [2]: 0 | PAI-1 score [2]: 0 | EGFR score [2]: 0

C=C1CC[C@H](O)C/C1=C/C=C1\CCC[C@]2(C)[C@@H]([C@H](C)/C=C/[C@H](C)C(C)C)CC[C@@H]12 [Calciferol]
HLA-DR score [1]: 0 | uPAR score [1]: 1 | HLA-DR score [2]: 0 | MMP-1 score [2]: 1 | uPA score [2]: 0 | PAI-1 score [2]: 0 | EGFR score [2]: 0

COc1cc(-c2ccc(=O)[nH]n2)ccc1OC(F)F [Zardaverine]
HLA-DR score [1]: 0 | uPAR score [1]: 0 | HLA-DR score [2]: 0 | MMP-1 score [2]: 0 | uPA score [2]: 0 | PAI-1 score [2]: 0 | EGFR score [2]: 0

CCc1oc2ccccc2c1C(=O)c1cc(Br)c(O)c(Br)c1 [Benzbromarone]
HLA-DR score [1]: 0 | uPAR score [1]: 0 | HLA-DR score [2]: 0 | MMP-1 score [2]: 1 | uPA score [2]: 0 | PAI-1 score [2]: 1 | EGFR score [2]: 0

Antimycin A
HLA-DR score [1]: 0 | uPAR score [1]: 0 | HLA-DR score [2]: 0 | MMP-1 score [2]: 0 | uPA score [2]: 0 | PAI-1 score [2]: 1 | EGFR score [2]: 0

Cc1c(Cl)cccc1Nc1ccccc1C(=O)O [Tolfenamic Acid]
HLA-DR score [1]: 0 | uPAR score [1]: 0 | HLA-DR score [2]: 0 | MMP-1 score [2]: 1 | uPA score [2]: 0 | PAI-1 score [2]: 1 | EGFR score [2]: 0

CCCCN(CCCC)CCC(O)c1cc2c(Cl)cc(Cl)cc2c2cc(C(F)(F)F)ccc12 (stereo not drawn) [Halofantrine]
HLA-DR score [1]: 0 | uPAR score [1]: 0 | HLA-DR score [2]: 0 | MMP-1 score [2]: 1 | uPA score [2]: 0 | PAI-1 score [2]: 0 | EGFR score [2]: 0

C[C@]12C=CC(=O)C=C1CC[C@@H]1[C@@H]2[C@@H](O)C[C@@]2(C)[C@H]1CC[C@]2(O)C(=O)CO [Prednisolone]
HLA-DR score [1]: 1 | uPAR score [1]: 0 | HLA-DR score [2]: 0 | MMP-1 score [2]: 0 | uPA score [2]: 0 | PAI-1 score [2]: 0 | EGFR score [2]: 0

Fc1ccc(C(OCCN2CCN(CCCc3ccccc3)CC2)c2ccc(F)cc2)cc1 [GBR 12909]
HLA-DR score [1]: 0 | uPAR score [1]: 0 | HLA-DR score [2]: 0 | MMP-1 score [2]: 1 | uPA score [2]: 0 | PAI-1 score [2]: 0 | EGFR score [2]: 0

COc1cc2c(c(OC)c1OC)-c1ccc(OC)c(=O)cc1[C@@H](NC(C)=O)CC2 [Colchicine]
HLA-DR score [1]: 0 | uPAR score [1]: 0 | HLA-DR score [2]: 0 | MMP-1 score [2]: 0 | uPA score [2]: 0 | PAI-1 score [2]: 0 | EGFR score [2]: 0

COC(=O)Nc1nc2ccc(SC(C)C)cc2[nH]1 [Methiazole]
HLA-DR score [1]: 0 | uPAR score [1]: 0 | HLA-DR score [2]: 0 | MMP-1 score [2]: 0 | uPA score [2]: 0 | PAI-1 score [2]: 1 | EGFR score [2]: 0

CCN(CC)CCNc1ccc(CO)c2sc3ccccc3c(=O)c12 [Hycanthone]
HLA-DR score [1]: 0 | uPAR score [1]: 0 | HLA-DR score [2]: 0 | MMP-1 score [2]: 0 | uPA score [2]: 0 | PAI-1 score [2]: 1 | EGFR score [2]: 0
